ChEMBL document CHEMBL1201862, “PubChem BioAssay data set” (2004)
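In this assay, cells in 96-well plates receive the compound at five concentrations for 48 hours. Endpoints are linearly interpolated between the surrounding concentrations. GI50 is the concentration that inhibits growth by half.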 Activity calls are given as the source filed them. No stated cut-off is given here; in the data, active = GI50 up to about 1.1 µM and inactive = higher.

Assays:
Test in all cases: growth of human tumour cells (NCI), 48 h
[1] = system: SK-MEL-5
[2] = system: SNB-19
[3] = system: NCI-H522
[4] = system: SK-MEL-2
[5] = system: BT-549
[6] = system: SF-539
[7] = system: UACC-62
[8] = system: NCI/ADR-RES
[9] = system: KM12
[10] = system: OVCAR-8
[11] = system: CCRF-CEM
[12] = system: CAKI-1
[13] = system: HOP-92
[14] = system: RPMI-8226
[15] = system: HT-29
[16] = system: SK-OV-3
[17] = system: OVCAR-5
[18] = system: SNB-75
[19] = system: TK-10
[20] = system: U-251
[21] = system: A549
[22] = system: COLO 205
[23] = system: OVCAR-4
[24] = system: HL-60
[25] = system: MOLT-4
[26] = system: EKVX
[27] = system: K562
[28] = system: UO-31
[29] = system: MDA-N
[30] = system: A498
[31] = system: SW-620
[32] = system: HOP-62
[33] = system: MDA-MB-231
[34] = system: 786-0
[35] = system: SF-295
[36] = system: ACHN
[37] = system: MCF7
[38] = system: Hs-578T
[39] = system: OVCAR-3
[40] = system: LOX IMVI
[41] = system: NCI-H226
[42] = system: HCT-116
[43] = system: MDA-MB-435
[44] = system: SR
[45] = system: NCI-H23
[46] = system: T47D
[47] = system: M14
[48] = system: IGROV-1
[49] = system: PC-3
[50] = system: HCT-15
[51] = system: Malme-3M
[52] = system: NCI-H460
[53] = system: HCC 2998
[54] = system: UACC-257
[55] = system: SK-MEL-28
[56] = system: RXF 393
[57] = system: DU-145
[58] = system: SN12C
[59] = system: SF-268

Measured: GI50

CCOC(=O)C1(N)CCc2[nH][nH]c(=O)c2C1 (configuration not stated)
> 100 µM: [50]
inactive: [1] > 100 µM | [2] > 100 µM | [3] > 100 µM | [4] > 100 µM | [5] > 100 µM | [6] > 100 µM | [7] > 100 µM | [8] > 100 µM | [9] > 100 µM | [10] > 100 µM | [11] > 100 µM | [12] > 100 µM | [13] > 100 µM | [14] > 100 µM | [15] > 100 µM | [16] > 100 µM | [17] > 100 µM | [18] > 100 µM | [19] > 100 µM | [20] > 100 µM | [21] > 100 µM | [22] > 100 µM | [23] > 100 µM | [24] > 100 µM | [25] > 100 µM | [26] > 100 µM | [27] > 100 µM | [28] > 100 µM | [29] > 100 µM | [30] > 100 µM | [31] > 100 µM | [32] > 100 µM | [33] > 100 µM | [34] > 100 µM | [35] > 100 µM | [36] > 100 µM | [37] > 100 µM | [38] > 100 µM | [39] > 100 µM | [40] > 100 µM | [41] > 100 µM | [42] > 100 µM | [43] > 100 µM | [44] > 100 µM | [45] > 100 µM | [46] > 100 µM | [47] > 100 µM | [48] > 100 µM | [49] > 100 µM | [51] > 100 µM | [52] > 100 µM | [53] > 100 µM | [54] > 100 µM | [55] > 100 µM

CCN(CC)C1Oc2cc3c(cc2C(c2ccc(OC)cc2)C1C)OCO3 (configuration not stated)
18.9 µM: [50]
inactive: [1] 17.3 µM | [2] 26.9 µM | [3] 15 µM | [4] 17.6 µM | [5] 20.8 µM | [6] 20.2 µM | [7] 19.1 µM | [9] 20 µM | [10] 19.5 µM | [11] 15.5 µM | [12] 24.9 µM | [13] 25.3 µM | [14] 17 µM | [15] 18.7 µM | [16] 40.2 µM | [17] 26.2 µM | [18] 20.3 µM | [19] 18.7 µM | [20] 22.2 µM | [21] 22.6 µM | [22] 17.6 µM | [56] 18.9 µM | [25] 17.6 µM | [26] 18.3 µM | [27] 19.1 µM | [28] 19.7 µM | [29] 17.5 µM | [30] 19.7 µM | [31] 30.3 µM | [32] 24.8 µM | [33] 23.4 µM | [34] 21.7 µM | [35] 21.7 µM | [36] 22.5 µM | [37] 20.9 µM | [38] 18.7 µM | [39] 18.2 µM | [40] 16.1 µM | [41] 23 µM | [42] 15.8 µM | [43] 18.9 µM | [57] 25.6 µM | [44] 12.5 µM | [45] 21.8 µM | [46] 26.9 µM | [47] 21.2 µM | [58] 21.7 µM | [48] 29.5 µM | [49] 23.8 µM | [59] 17.3 µM | [51] 18.3 µM | [52] 17.1 µM | [53] 19 µM | [54] 15.9 µM | [55] 20.4 µM

Cc1ccc(N2CCC3(CC2)OCCO3)cc1
inactive: [1] > 100 µM | [2] > 100 µM | [3] > 100 µM | [4] > 100 µM | [5] > 100 µM | [6] > 100 µM | [7] > 100 µM | [8] > 100 µM | [9] > 100 µM | [10] > 100 µM | [11] > 100 µM | [12] > 100 µM | [13] > 100 µM | [14] > 100 µM | [15] > 100 µM | [16] > 100 µM | [17] > 100 µM | [18] > 100 µM | [19] > 100 µM | [20] > 100 µM | [21] > 100 µM | [22] > 100 µM | [56] > 100 µM | [23] > 100 µM | [24] > 100 µM | [25] > 100 µM | [26] > 100 µM | [27] > 100 µM | [28] > 100 µM | [29] > 100 µM | [30] > 100 µM | [31] > 100 µM | [32] > 100 µM | [33] > 100 µM | [34] > 100 µM | [35] > 100 µM | [36] > 100 µM | [38] > 100 µM | [39] > 100 µM | [41] > 100 µM | [42] > 100 µM | [43] > 100 µM | [57] > 100 µM | [44] > 100 µM | [45] > 100 µM | [46] > 100 µM | [47] > 100 µM | [58] > 100 µM | [48] > 100 µM | [49] > 100 µM | [59] > 100 µM | [51] > 100 µM | [52] > 100 µM | [53] > 100 µM | [54] > 100 µM | [55] > 100 µM
> 100 µM: [50]

CC(=O)OC(C)(C)[C@H]1O[C@]23O[C@]1(C)C[C@@H](C)[C@@H]2[C@@]1(C)CC[C@@]24C[C@@]25CC[C@H](O[C@@H]2OC[C@@H](O)[C@H](O)[C@H]2O)C(C)(C)[C@@H]5CC[C@H]4[C@]1(C)[C@H]3O
3.41 µM: [50]
inactive: [1] 10.3 µM | [2] 6.27 µM | [3] 7.28 µM | [4] 18.1 µM | [5] 16.3 µM | [6] 4.35 µM | [7] 14.6 µM | [8] 7.73 µM | [9] 3.35 µM | [10] 10.8 µM | [11] 5.94 µM | [12] 5.47 µM | [13] 9.02 µM | [14] 7.69 µM | [15] 8.38 µM | [16] 12.3 µM | [17] 11.8 µM | [18] 17.1 µM | [19] 10 µM | [20] 6.41 µM | [21] 6.41 µM | [22] 9.12 µM | [56] 3.36 µM | [23] 3.95 µM | [24] 2.03 µM | [25] 5.32 µM | [26] 4.06 µM | [27] 4.5 µM | [28] 14.6 µM | [30] 6.44 µM | [31] 4.34 µM | [32] 11.9 µM | [33] 4.61 µM | [34] 6.38 µM | [35] 8 µM | [36] 6.07 µM | [37] 5.38 µM | [38] 17.4 µM | [39] 3.59 µM | [40] 3.27 µM | [41] 8.59 µM | [42] 6.67 µM | [43] 8.73 µM | [57] 4.34 µM | [44] 3.18 µM | [45] 4.84 µM | [46] 17.6 µM | [47] 8.59 µM | [58] 4.41 µM | [48] 7.08 µM | [49] 4.65 µM | [59] 14 µM | [51] 22.8 µM | [52] 7.4 µM | [53] 9.93 µM | [54] 18.8 µM | [55] 7.08 µM

CN1C2CCC1CC(CCNC(c1ccccc1)c1ccccc1)C2 (configuration not stated)
inactive: [1] 12.9 µM | [2] > 100 µM | [3] 25.2 µM | [4] 16.7 µM | [5] 49.3 µM | [6] 17.9 µM | [8] > 100 µM | [9] 44 µM | [10] 57 µM | [11] 36 µM | [12] 59.7 µM | [13] 18 µM | [14] 20.2 µM | [15] 15.2 µM | [16] > 100 µM | [17] > 100 µM | [18] 47.2 µM | [19] 22.2 µM | [20] 30.6 µM | [21] 71 µM | [22] 11.5 µM | [56] 14.4 µM | [23] > 100 µM | [24] 31 µM | [25] 25.4 µM | [26] 24.9 µM | [27] 6.5 µM | [28] 17.2 µM | [29] 12.6 µM | [30] 23.8 µM | [31] 79.6 µM | [32] 19.7 µM | [33] 22.2 µM | [34] 17.5 µM | [35] 22.5 µM | [36] 80.5 µM | [38] 29.9 µM | [39] 47.4 µM | [40] 20.2 µM | [41] 36.9 µM | [42] 18.3 µM | [43] 6.81 µM | [57] > 100 µM | [44] 15.3 µM | [45] > 100 µM | [46] 25.5 µM | [47] 11.6 µM | [58] 83 µM | [48] 62.7 µM | [49] 37.6 µM | [59] 35.3 µM | [51] 17.3 µM | [52] 83.9 µM | [54] 16.4 µM | [55] 17.3 µM
33.7 µM: [50]
